Results published in PubChem BioAssay (NCI).
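GI50 marks 50% less growth. At the TGI there is no net growth.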

Tests used:
Test in all cases: growth of human tumour cells (NCI), 384-well format
786-0 renal = test system: 786-0 renal
A498 renal = test system: A498 renal
A549 NSCLC = test system: A549 NSCLC
ACHN renal = test system: ACHN renal
BT-549 breast = test system: BT-549 breast
CAKI-1 renal = test system: CAKI-1 renal
COLO 205 colon = test system: COLO 205 colon
DU-145 prostate = test system: DU-145 prostate
EKVX NSCLC = test system: EKVX NSCLC
HCT-116 colon = test system: HCT-116 colon
HCT-15 colon = test system: HCT-15 colon
HL-60(TB) leukemia = test system: HL-60(TB) leukemia
HOP-62 NSCLC = test system: HOP-62 NSCLC
HOP-92 NSCLC = test system: HOP-92 NSCLC
HS 578T breast = test system: HS 578T breast
HT29 colon = test system: HT29 colon
IGROV1 ovarian = test system: IGROV1 ovarian
K-562 leukemia = test system: K-562 leukemia
KM12 colon = test system: KM12 colon
M14 melanoma = test system: M14 melanoma
MALME-3M melanoma = test system: MALME-3M melanoma
MCF7 breast = test system: MCF7 breast
MDA-MB-231 breast = test system: MDA-MB-231 breast
MDA-MB-435 melanoma = test system: MDA-MB-435 melanoma
MDA-MB-468 breast = test system: MDA-MB-468 breast
MOLT-4 leukemia = test system: MOLT-4 leukemia
NCI-H226 lung = test system: NCI-H226 lung
NCI-H23 lung = test system: NCI-H23 lung
NCI-H322M lung = test system: NCI-H322M lung
NCI-H460 NSCLC = test system: NCI-H460 NSCLC
NCI-H522 lung = test system: NCI-H522 lung
OVCAR-3 ovarian = test system: OVCAR-3 ovarian
OVCAR-4 ovarian = test system: OVCAR-4 ovarian
OVCAR-5 ovarian = test system: OVCAR-5 ovarian
OVCAR-8 ovarian = test system: OVCAR-8 ovarian
PC-3 prostate = test system: PC-3 prostate
RXF 393 renal = test system: RXF 393 renal
SF-268 CNS = test system: SF-268 CNS
SF-295 CNS = test system: SF-295 CNS
SF-539 CNS = test system: SF-539 CNS
SK-MEL-2 melanoma = test system: SK-MEL-2 melanoma
SK-MEL-28 melanoma = test system: SK-MEL-28 melanoma
SK-MEL-5 melanoma = test system: SK-MEL-5 melanoma
SK-OV-3 ovarian = test system: SK-OV-3 ovarian
SN12C renal = test system: SN12C renal
SNB-19 CNS = test system: SNB-19 CNS
SNB-75 CNS = test system: SNB-75 CNS
SR leukemia = test system: SR leukemia
SW-620 colon = test system: SW-620 colon
T-47D breast = test system: T-47D breast
TK-10 renal = test system: TK-10 renal
U251 glioblastoma = test system: U251 glioblastoma
UACC-257 melanoma = test system: UACC-257 melanoma
UACC-62 melanoma = test system: UACC-62 melanoma
UO-31 renal = test system: UO-31 renal
CCRF-CEM leukemia = test system: CCRF-CEM leukemia
HCC-2998 colon = test system: HCC-2998 colon
LOX IMVI melanoma = test system: LOX IMVI melanoma
RPMI-8226 leukemia = test system: RPMI-8226 leukemia

## C#CC[C@H](c1nc2cc(Cl)ccc2c(=O)n1Nc1ccccc1)N(CCCN)C(=O)c1cccc(Cl)c1F
786-0 renal
  GI50: 0.678 µM
  TGI: 1.96 µM
A498 renal
  GI50: 0.553 µM
  TGI: 1.82 µM
A549 NSCLC
  GI50: 0.0625 µM
  TGI: 1.88 µM
ACHN renal
  GI50: 1.11 µM
  TGI: 2.32 µM
BT-549 breast
  GI50: 0.166 µM
  TGI: 1.08 µM
CAKI-1 renal
  GI50: 0.795 µM
  TGI: 2.03 µM
COLO 205 colon
  GI50: 0.0303 µM
  TGI: 0.0829 µM
DU-145 prostate
  GI50: 0.0589 µM
  TGI: 1.06 µM
EKVX NSCLC
  GI50: 0.0896 µM
  TGI: 1.46 µM
HCT-116 colon
  GI50: 0.0365 µM
  TGI: 1.17 µM
HCT-15 colon
  GI50: 1.5 µM
  TGI: 2.85 µM
HL-60(TB) leukemia
  GI50: 0.0199 µM
  TGI: 0.0346 µM
HOP-62 NSCLC
  GI50: 0.354 µM
  TGI: 1.54 µM
HOP-92 NSCLC
  GI50: 0.674 µM
  TGI: 2.14 µM
HS 578T breast
  GI50: 0.0178 µM
  TGI: 0.0448 µM
HT29 colon
  GI50: 0.0361 µM
  TGI: 0.173 µM
IGROV1 ovarian
  GI50: 1.03 µM
  TGI: 2.22 µM
K-562 leukemia
  GI50: 0.0449 µM
  TGI: 0.219 µM
KM12 colon
  GI50: 0.0568 µM
  TGI: 0.67 µM
M14 melanoma
  GI50: 0.363 µM
  TGI: 1.44 µM
MALME-3M melanoma
  GI50: 0.189 µM
  TGI: 1.76 µM
MCF7 breast
  GI50: 0.0231 µM
  TGI: 1.11 µM
MDA-MB-231 breast
  GI50: 0.063 µM
  TGI: 1.7 µM
MDA-MB-435 melanoma
  GI50: 0.0178 µM
  TGI: 0.0359 µM
MDA-MB-468 breast
  GI50: 0.0183 µM
  TGI: 0.0396 µM
MOLT-4 leukemia
  GI50: 0.0194 µM
  TGI: 0.0344 µM
NCI-H226 lung
  GI50: 1.11 µM
  TGI: 2.31 µM
NCI-H23 lung
  GI50: 0.0737 µM
  TGI: 0.799 µM
NCI-H322M lung
  GI50: 0.0528 µM
  TGI: 1.52 µM
NCI-H460 NSCLC
  GI50: 0.048 µM
  TGI: 1.12 µM
NCI-H522 lung
  GI50: 0.02 µM
  TGI: 0.0402 µM
OVCAR-3 ovarian
  GI50: 0.0302 µM
  TGI: 0.277 µM
OVCAR-4 ovarian
  GI50: 0.521 µM
  TGI: 2.09 µM
OVCAR-5 ovarian
  GI50: 0.468 µM
  TGI: 1.86 µM
OVCAR-8 ovarian
  GI50: 0.189 µM
  TGI: 1.22 µM
PC-3 prostate
  GI50: 0.057 µM
  TGI: 1.59 µM
RXF 393 renal
  GI50: 0.041 µM
  TGI: 0.288 µM
SF-268 CNS
  GI50: 0.0486 µM
  TGI: 1.45 µM
SF-295 CNS
  GI50: 0.227 µM
  TGI: 0.65 µM
SF-539 CNS
  GI50: 0.0273 µM
  TGI: 0.0751 µM
SK-MEL-2 melanoma
  GI50: 0.0216 µM
  TGI: 0.0435 µM
SK-MEL-28 melanoma
  GI50: 1.29 µM
  TGI: 2.56 µM
SK-MEL-5 melanoma
  GI50: 0.0774 µM
  TGI: 0.737 µM
SK-OV-3 ovarian
  GI50: 0.0299 µM
  TGI: 0.648 µM
SN12C renal
  GI50: 0.109 µM
  TGI: 1.86 µM
SNB-19 CNS
  GI50: 0.863 µM
  TGI: 2.16 µM
SNB-75 CNS
  GI50: 0.0589 µM
  TGI: 1.53 µM
SR leukemia
  GI50: 0.0189 µM
  TGI: 0.0343 µM
SW-620 colon
  GI50: 0.0652 µM
  TGI: 1.25 µM
T-47D breast
  GI50: 0.0577 µM
  TGI: 1.6 µM
TK-10 renal
  GI50: 1.07 µM
  TGI: 2.27 µM
U251 glioblastoma
  GI50: 0.045 µM
  TGI: 1.33 µM
UACC-257 melanoma
  GI50: 0.0604 µM
  TGI: 1.9 µM
UACC-62 melanoma
  GI50: 0.0517 µM
  TGI: 1.44 µM
UO-31 renal
  GI50: 1.79 µM
  TGI: 3.18 µM

## O=C(c1cc(-c2cc3c(cc2C(=O)N2Cc4ccccc4C[C@H]2CN2CCOCC2)OCO3)n2c1CCCC2)N(c1ccccc1)c1ccc(O)cc1
A498 renal
  GI50: 0.806 µM
  TGI: 3.57 µM
ACHN renal
  GI50: 4.91 µM
  TGI: > 100 µM
CCRF-CEM leukemia
  GI50: 0.255 µM
  TGI: 0.618 µM
HCC-2998 colon
  GI50: 1.27 µM
  TGI: 2.83 µM
HCT-15 colon
  GI50: 1.75 µM
  TGI: 3.22 µM
HL-60(TB) leukemia
  GI50: 0.146 µM
  TGI: 0.28 µM
HOP-92 NSCLC
  GI50: 0.502 µM
  TGI: 2.42 µM
HT29 colon
  GI50: 0.419 µM
  TGI: 1.46 µM
IGROV1 ovarian
  GI50: 2.77 µM
  TGI: > 100 µM
LOX IMVI melanoma
  GI50: 1.42 µM
  TGI: 3.25 µM
M14 melanoma
  GI50: 0.475 µM
  TGI: 1.7 µM
MALME-3M melanoma
  GI50: 0.473 µM
  TGI: 4.71 µM
MCF7 breast
  GI50: 0.412 µM
  TGI: 3 µM
MDA-MB-231 breast
  GI50: 1.19 µM
  TGI: 3.23 µM
MDA-MB-435 melanoma
  GI50: 0.144 µM
  TGI: 0.351 µM
MDA-MB-468 breast
  GI50: 0.214 µM
  TGI: 0.456 µM
MOLT-4 leukemia
  GI50: 0.182 µM
  TGI: 0.327 µM
NCI-H226 lung
  GI50: 1.01 µM
  TGI: 3.18 µM
NCI-H322M lung
  GI50: 2.43 µM
  TGI: > 100 µM
OVCAR-3 ovarian
  GI50: 0.21 µM
  TGI: 0.497 µM
OVCAR-4 ovarian
  GI50: 1.29 µM
  TGI: 4.43 µM
OVCAR-5 ovarian
  GI50: 2.76 µM
  TGI: 8.21 µM
RPMI-8226 leukemia
  GI50: 0.207 µM
  TGI: 0.437 µM
RXF 393 renal
  GI50: 0.137 µM
  TGI: 0.484 µM
SF-295 CNS
  GI50: 2.04 µM
  TGI: 4.28 µM
SK-MEL-2 melanoma
  GI50: 0.176 µM
  TGI: 0.704 µM
SK-MEL-28 melanoma
  GI50: 0.735 µM
  TGI: 2.6 µM
SK-MEL-5 melanoma
  GI50: 0.305 µM
  TGI: 0.928 µM
SK-OV-3 ovarian
  GI50: 0.356 µM
  TGI: 1.46 µM
SR leukemia
  GI50: 0.0773 µM
  TGI: 0.206 µM
SW-620 colon
  GI50: 0.444 µM
  TGI: 1.54 µM
TK-10 renal
  GI50: 2.83 µM
  TGI: > 100 µM
UACC-257 melanoma
  GI50: 0.362 µM
  TGI: 1.25 µM
UACC-62 melanoma
  GI50: 0.356 µM
  TGI: 1.82 µM
UO-31 renal
  GI50: 4.17 µM
  TGI: > 100 µM
